What was measured:
[1] = test system: ApoE-KO/eNOS-Tg mice; assay: Sclerotic lesion area of aorta (Sudan III staining, image analysis) in mice fed high cholesterol diet; format: in vivo, mouse; conditions: BH4 10 mg/kg/day added to high cholesterol diet, FIG. 3
From the text: 37 mice (ApoE-KO/eNOS-Tg) produced in Example 10 were ablactated at the age of 4 weeks, and then fed on high cholesterol diet (1.25% cholesterol, 7.5% cacao butter, 7.5% casein, and 0.5% sodium cholate) for 12 weeks.
Thereafter, the 16-week-old mice were anesthetized with pentobarbital, and the aorta was perfused with a physiological saline solution containing 10 U/ml heparin. Thereafter, the aorta corresponding to the portion from the center of the left ventricle to the bifurcation portion of the iliac artery was excised and fixed with 4% paraformaldehyde overnight. Surrounding tissues were eliminated from the distal portion (from the aortic arch to the bifurcation portion of the iliac artery) of the excised aorta. The aorta was longitudinally opened and fixed on a dish coated with silicone, and then stained with Sudan III. The obtained light microscope image was analyzed using NIH 1.61 Imaging Software. The lesion formation area was expressed by lesion area/the total area of aorta. In the figure, * denotes p<0.0001 with respect to ApoE-KO male, and the cross denotes p<0.001 with respect to ApoE-KO female.
6 to 8 mice (ApoE-KO/eNOS-Tg) produced in Example 10 were used per group. BH4 non-administration groups were fed on the high cholesterol diet (refer to Example 10), and BH4 administration groups were fed on the high cholesterol diet to which BH4 was added at 10 mg/kg/day. […]

[2] = test system: superoxide in plaque area of aorta of ApoE-KO/eNOS-Tg mice; assay: Production of superoxide in excised aorta (MCLA chemiluminescence); format: in vivo, mouse; conditions: BH4 added high cholesterol diet for 8 weeks, 12 weeks old mice; vs non-administration; FIG. 4; p<0.01
Method: Groups were prepared, each of which consisted of 6 to 8 mice (12 weeks old, ApoE-KO/eNOS-Tg) fed on BH4 added or BH4 non-added high cholesterol diet for 8 weeks in the same manner as in Example 12. The aorta was excised from these mice, peripheral tissues were eliminated, and the remaining portion was mounted on a black silicone dish filled with PBS with pH 7.4. The sample was placed in a light-shielding box to avoid interference of external light, and thereafter, MCLA was added to the chamber to the final concentration of […]. Thereafter, light emission generated as a result of the reaction between MCLA (2-methyl-6-(4-methoxyphenyl)-3,7-dihydroimidazol[1,2-a]pyrazin-3-one-hydrochloride) and superoxide anion was measured for 5 minutes. This measurement was repeated 3 times.
The light emission data was served in a computer, and the obtained nonlinear gray scale images were converted into pseudocolor images. The intensity of chemiluminescence due to superoxide was analyzed using WinLight 32 software. The plaque area was defined as an area that was stained with Sudan III. Approximately 10 plaque areas and 10 non-plaque areas ([…]) were randomly selected from each mouse, followed by measurement. The background level was subtracted from each chemiluminescent signal intensity. […] The results are shown as relative values. […]

[3] = test system: NO from aortic endothelium of ApoE-KO/eNOS-Tg mice; assay: Production of NO in excised aorta (DAF-2 DA fluorescence, acetylcholine stimulated); format: in vivo, mouse; conditions: 12-week-old mice, high cholesterol diet for 8 weeks, BH4 administered vs not administered; FIG. 5; p<0.01
From the text: The aorta containing the portion from the aortic arch to the bifurcation portion of the iliac artery was excised from each of 12-week-old mice (ApoE-KO/eNOS-Tg) fed on a high cholesterol diet for 8 weeks. Immediately thereafter, surrounding portions were eliminated in PBS with pH 7.4. The sample was mounted on a black dish filled with a phosphate buffer (pH 7.4) containing 1.5 mmol/L calcium chloride, and it was then placed in a light-shielding box to avoid interference of external light.
Diaminofluorescein-2 diacetate (DAF-2 DA) was added thereto to the final concentration of 10 μmol/L. Then, the sample was left at ambient temperature for 5 minutes, and thereafter, it was excited with 485 nm blue light. The fluorescence generated as a result of the reaction between DAF-2 DA and NO was detected, using a luminograph equipped with a band filter with a center of 532 nm, and measurement was carried out for 1 second at an intensity of wave length of 515 nm. To examine the production of NO from the aortic endothelium, the sample was left in 1 μmol/L acetylcholine solution for 5 minutes, and then the fluorescent image was measured. After completion of each experiment, in order to determine whether the measured sample was a plaque area or non-plaque area, the sample was stained with Sudan III and observed. […]

[4] = from treatment for Parkinson's disease in Japanese Patent Laid-Open No. 59-25323; cited from earlier work
[5] = Acute toxicity of BH4 dihydrochloride in rat, oral administration; format: in vivo
From the text: The active ingredient used in the present invention is most preferably (6R)-L-erythro-5,6,7,8-tetrahydrobiopterin (BH4) or a salt thereof. However, analogues thereof such as (6R, S)-5,6,7,8-tetrahydrobiopterin, 1′,2′-diacetyl-5,6,7,8-tetrahydrobiopterin, sepiapterin, 6-methyl-5,6,7,8-tetrahydropterin, 6-hydroxymethyl-5,6,7,8-tetrahydropterin, 6-phenyl-5,6,7,8-tetrahydropterin, or a salt thereof, may also be used. However, needless to say, BH4 that is a natural substance existing in an organism is preferable. […] In addition, as is clear from the description of a treatment for Parkinson's disease in Japanese Patent Laid-Open No. 59-25323, the toxicity of (6R, S)-5,6,7,8-tetrahydrobiopterin, that is, non-optically pure substance, is weak. Accordingly, this compound can also be used for the treatment in the present invention. Compounds represented by the formula (I) other than the above described compounds have almost no acute toxicity.

## CC(O)C(O)C1CNc2nc(N)[nH]c(=O)c2N1 [BH4, (6R)-L-erythro-5,6,7,8-tetrahydrobiopterin]
[1]
  arteriosclerosis: suppressed
[1]; vs non-administration group, p<0.05 male, p<0.01 female
  lesion area (lesion area/total area of aorta): reduced
[2]
  production of superoxide in plaque area: significantly reduced
[3]
  production of NO in non-plaque area: significantly increased

## C[C@H](O)[C@H](O)C1CNc2nc(N)[nH]c(=O)c2N1 (stereo partly drawn) [(6R, S)-5,6,7,8-tetrahydrobiopterin]
[4]
  toxicity: weak

## C[C@H](O)[C@H](O)[C@H]1CNc2[nH]c(N)nc(=O)c2N1.Cl.Cl [BH4 dihydrochloride]
[5]
  acute toxicity: ≥ 2 g/kg (body weight)
  toxicity (in words): almost no toxicity is found

— patent US20040198738A1, “Preventives or remedies for diseaes caused by enos expression” (priority 2002, published 2004)
